ChEMBL document CHEMBL4823282, “Novel Broad-Spectrum Antimicrobial Peptide Derived from Anoplin and Its Activity on Bacterial Pneumonia in Mice” (J Med Chem, 2021)
≈ marks a conversion by molar mass, not a printed value. Where a SMILES comes first, the peptide text is derived from it.

What was measured:
Pseudomonas aeruginosa [1] = assay: Synergistic antibacterial activity against Pseudomonas aeruginosa ATCC 27853 at 2 times MIC incubated for 18 to 24 hrs in presence of 2 times MIC of rifampicin by broth microdilution assay based checkerboard assay; format: functional; conditions: time 18-24 hrs
Pseudomonas aeruginosa [2] = assay: Synergistic antibacterial activity against Pseudomonas aeruginosa ATCC 27853 at 2 times MIC incubated for 18 to 24 hrs in presence of 2 times MIC of polymyxin B by broth microdilution assay based checkerboard assay; format: functional; conditions: time 18-24 hrs
Acinetobacter baumannii = assay: Antibacterial activity against Acinetobacter baumannii ATCC 19606 incubated for 18 hrs by CLSI based broth dilution method; format: functional; conditions: ATCC 19606 = CIP 70.34 = JCM 6841
[3] = Selectivity ratio of MHC10 for BALB/C mouse erythrocytes to MIC for gram-negative bacteria; format: toxicity
Fungi = assay: Antibacterial activity against fungi incubated for 18 hrs by CLSI based broth dilution method; format: functional
[4] = system: Staphylococcus epidermidis; assay: Antibacterial activity against Staphylococcus epidermidis ATCC 12228 incubated for 18 hrs by CLSI based broth dilution method; format: functional
Bacteria [5] = assay: Antibacterial activity against bacteria incubated for 18 hrs by CLSI based broth dilution method; format: functional
Staphylococcus aureus = assay: Antibacterial activity against Staphylococcus aureus ATCC 25923 incubated for 18 hrs by CLSI based broth dilution method; format: functional
Erythrocyte = assay: Hemolytic activity in BALB/C mouse erythrocytes incubated for 1 hr by absorbance method; format: ADME, cell-based
[6] = Selectivity ratio of MHC10 for BALB/C mouse erythrocytes to MIC for gram positive bacteria; format: toxicity
Bacteria [7] = assay: Antibacterial activity against Gram-positive bacteria incubated for 18 hrs by CLSI based broth dilution method; format: functional
Escherichia coli = assay: Antibacterial activity against Escherichia coli ATCC 25922 incubated for 18 hrs by CLSI based broth dilution method; format: functional
Pseudomonas aeruginosa [8] = assay: Antibacterial activity against Pseudomonas aeruginosa ATCC 27853 incubated for 18 hrs by CLSI based broth dilution method; format: functional
Klebsiella pneumoniae = assay: Antibacterial activity against Klebsiella pneumoniae ATCC 700603 incubated for 18 hrs by CLSI based broth dilution method; format: functional
[9] = Selectivity ratio of MHC10 for BALB/C mouse erythrocytes to MIC for bacteria; format: toxicity
[10] = Selectivity ratio of MHC10 for BALB/C mouse erythrocytes to MIC for fungi; format: toxicity
[11] = Cytotoxicity against human glomerular mesangial cells incubated for 12 hrs by MTT assay; format: cell-based; conditions: Glomerular mesangial cell
Enterococcus faecalis = assay: Antibacterial activity against Enterococcus faecalis ATCC 29212 incubated for 18 hrs by CLSI based broth dilution method; format: functional
Bacillus subtilis = assay: Antibacterial activity against Bacillus subtilis ATCC 23857 incubated for 18 hrs by CLSI based broth dilution method; format: functional
Bacteria [12] = assay: Antibacterial activity against Gram-negative bacteria incubated for 18 hrs by CLSI based broth dilution method; format: functional

Row | Compound | FIC (Pseudomonas aeruginosa [1]) | FIC (Pseudomonas aeruginosa [2]) | MIC (Acinetobacter baumannii) [µM] | selectivity ratio [3] | MIC (Fungi) [µM] | MIC [4] [µM] | MIC (Bacteria [5]) [µM] | MIC (Staphylococcus aureus) [µM] | MHC10 (Erythrocyte) | selectivity ratio at 18 h [6] | MIC (Bacteria [7]) [µM] | MIC (Escherichia coli) [µM] | MIC (Pseudomonas aeruginosa [8]) [µM] | MIC (Klebsiella pneumoniae) [µM] | selectivity ratio [9] | selectivity ratio [10] | IC50 [11] [µM] | MIC (Enterococcus faecalis) [µM] | MIC (Bacillus subtilis) [µM] | MIC (Bacteria [12]) [µM]
1 | CC[C@H](C)[C@H](NC(=O)[C@H](CCCNC(=N)N)NC(=O)[C@H](CCCNC(=N)N)NC(=O)[C@H](Cc1ccccc1)NC(=O)[C@H](Cc1ccccc1)NC(=O)CN)C(=O)N[C@@H](CCCNC(=N)N)C(=O)N[C@H](C(=O)N[C@@H](Cc1ccccc1)C(=O)N[C@@H](Cc1ccccc1)C(N)=O)[C@@H](C)O (H-GFFRRIRTFF-NH2) | 0.5625 | 0.5625 | 32 (≈ 43.1 µg/mL) | 26.9 | 17.4 (≈ 23.5 µg/mL) | 32 (≈ 43.1 µg/mL) | 17.4 (≈ 23.5 µg/mL) | 8 (≈ 10.8 µg/mL) | >= 512 uM | 32 | 16 (≈ 21.5 µg/mL) | 32 (≈ 43.1 µg/mL) | 32 (≈ 43.1 µg/mL) | 32 (≈ 43.1 µg/mL) | 29.3 | 29.3 | 52.6 | 32 (≈ 43.1 µg/mL) | 8 (≈ 10.8 µg/mL) | 
2 | CC[C@H](C)[C@H](NC(=O)[C@H](CCCNC(=N)N)NC(=O)[C@H](CCCNC(=N)N)NC(=O)[C@H](Cc1ccccc1)NC(=O)[C@H](Cc1ccccc1)NC(=O)CN)C(=O)N[C@@H](CCCCN)C(=O)N[C@H](C(=O)N[C@@H](Cc1ccccc1)C(=O)N[C@@H](Cc1ccccc1)C(N)=O)[C@@H](C)O (H-GFFRRIKTFF-NH2) | 0.3125 | 0.5 | 64 (≈ 84.3 µg/mL) | 19 | 29.3 (≈ 38.7 µg/mL) | 64 (≈ 84.3 µg/mL) | 29.3 (≈ 38.7 µg/mL) | 16 (≈ 21.1 µg/mL) | >= 512 uM | 16 | 32 (≈ 42.2 µg/mL) | 32 (≈ 42.2 µg/mL) | 32 (≈ 42.2 µg/mL) | 32 (≈ 42.2 µg/mL) | 17.4 | 17.4 | 91.9 | 64 (≈ 84.3 µg/mL) | 16 (≈ 21.1 µg/mL) | 
3 | CC[C@H](C)[C@H](NC(=O)[C@H](CCCNC(=N)N)NC(=O)[C@H](CCCCN)NC(=O)[C@H](Cc1c[nH]c2ccccc12)NC(=O)[C@H](Cc1c[nH]c2ccccc12)NC(=O)CN)C(=O)N[C@@H](CCCCN)C(=O)N[C@H](C(=O)N[C@@H](Cc1c[nH]c2ccccc12)C(=O)N[C@@H](Cc1c[nH]c2ccccc12)C(N)=O)[C@@H](C)O (H-GWWKRIKTWW-NH2) | 0.5 | 0.5 | 8 (≈ 11.6 µg/mL) | 15.3 | 7.34 (≈ 10.6 µg/mL) | 8 (≈ 11.6 µg/mL) | 7.34 (≈ 10.6 µg/mL) | 4 (≈ 5.78 µg/mL) | 102.54 µM | 12.8 | 8 (≈ 11.6 µg/mL) | 8 (≈ 11.6 µg/mL) | 8 (≈ 11.6 µg/mL) | 8 (≈ 11.6 µg/mL) | 14 | 14 | 25.2 | 16 (≈ 23.1 µg/mL) | 8 (≈ 11.6 µg/mL) | 6.7 (≈ 9.69 µg/mL)
4 | CC[C@H](C)[C@H](NC(=O)[C@H](CCCNC(=N)N)NC(=O)[C@H](CCCCN)NC(=O)[C@H](Cc1ccccc1)NC(=O)[C@H](Cc1c[nH]c2ccccc12)NC(=O)CN)C(=O)N[C@@H](CCCCN)C(=O)N[C@H](C(=O)N[C@@H](Cc1ccccc1)C(=O)N[C@@H](Cc1c[nH]c2ccccc12)C(N)=O)[C@@H](C)O (H-GWFKRIKTFW-NH2) | 0.3125 | 0.25 | 64 (≈ 87.5 µg/mL) | 17 | 16 (≈ 21.9 µg/mL) | 4 (≈ 5.47 µg/mL) | 16 (≈ 21.9 µg/mL) | 16 (≈ 21.9 µg/mL) | 384 µM | 34 | 11.3 (≈ 15.5 µg/mL) | 16 (≈ 21.9 µg/mL) | 16 (≈ 21.9 µg/mL) | 32 (≈ 43.8 µg/mL) | 24 | 24 | 98.3 | 64 (≈ 87.5 µg/mL) | 4 (≈ 5.47 µg/mL) | 
5 | CC(C)C[C@H](NC(=O)[C@H](CC(C)C)NC(=O)[C@@H](NC(=O)[C@H](CCCCN)NC(=O)[C@H](Cc1c[nH]c2ccccc12)NC(=O)[C@H](CCCNC(=N)N)NC(=O)[C@H](CCCCN)NC(=O)[C@H](CC(C)C)NC(=O)[C@H](CC(C)C)NC(=O)CN)[C@@H](C)O)C(N)=O (H-GLLKRWKTLL-NH2) | 0.5625 | 0.3125 | 256 (≈ 314 µg/mL) | 11.3 | 64 (≈ 78.5 µg/mL) | 16 (≈ 19.6 µg/mL) | 64 (≈ 78.5 µg/mL) | 128 (≈ 157 µg/mL) | >= 512 uM | 5.66 | 90.5 (≈ 111 µg/mL) | 64 (≈ 78.5 µg/mL) | 64 (≈ 78.5 µg/mL) | 64 (≈ 78.5 µg/mL) | 8 | 8 | ≥ 512 | 256 (≈ 314 µg/mL) | 128 (≈ 157 µg/mL) | 45.3 (≈ 55.6 µg/mL)
6 | N=C(N)NCCC[C@H](NC(=O)[C@H](CCCNC(=N)N)NC(=O)[C@H](Cc1c[nH]c2ccccc12)NC(=O)[C@H](CCCNC(=N)N)NC(=O)[C@H](CCCNC(=N)N)NC(=O)[C@H](Cc1c[nH]c2ccccc12)NC(=O)[C@H](Cc1c[nH]c2ccccc12)NC(=O)[C@@H](N)CCCNC(=N)N)C(=O)N[C@@H](Cc1c[nH]c2ccccc12)C(=O)N[C@@H](Cc1c[nH]c2ccccc12)C(N)=O (H-RWWRRWRRWW-NH2) |  |  | 128 (≈ 221 µg/mL) | 1.93 | 17.4 (≈ 30.2 µg/mL) | 32 (≈ 55.3 µg/mL) | 17.4 (≈ 30.2 µg/mL) | 8 (≈ 13.8 µg/mL) | 43.67 µM | 3.23 | 13.5 (≈ 23.3 µg/mL) | 32 (≈ 55.3 µg/mL) | 32 (≈ 55.3 µg/mL) | 32 (≈ 55.3 µg/mL) | 2.5 | 2.5 | 11.2 | 32 (≈ 55.3 µg/mL) | 4 (≈ 6.92 µg/mL) | 22.6 (≈ 39.1 µg/mL)
7 | CC(C)C[C@H](NC(=O)[C@H](C)NC(=O)[C@@H](NC(=O)[C@H](CCCCN)NC(=O)[C@H](C)NC(=O)[C@H](CCCNC(=N)N)NC(=O)[C@H](CCCCN)NC(=O)[C@H](CC(C)C)NC(=O)[C@H](C)NC(=O)CN)[C@@H](C)O)C(N)=O (H-GALKRAKTAL-NH2) |  |  | ≥ 512 | 1 | ≥ 512 | ≥ 512 | ≥ 512 | ≥ 512 | >= 512 uM | 1 | ≥ 512 | ≥ 512 | ≥ 512 | ≥ 512 | 1 | 1 | ≥ 512 | ≥ 512 | ≥ 512 | ≥ 512
8 | CC(C)C[C@H](NC(=O)[C@H](C)NC(=O)[C@@H](NC(=O)[C@H](CCCCN)NC(=O)[C@H](C)NC(=O)[C@H](CCCNC(=N)N)NC(=O)[C@H](CCCCN)NC(=O)[C@H](C)NC(=O)[C@H](C)NC(=O)CN)[C@@H](C)O)C(N)=O (H-GAAKRAKTAL-NH2) |  |  | ≥ 512 | 1 | ≥ 512 | ≥ 512 | ≥ 512 | ≥ 512 | >= 512 uM | 1 | ≥ 512 | ≥ 512 | ≥ 512 | ≥ 512 | 1 | 1 | ≥ 512 | ≥ 512 | ≥ 512 | ≥ 512
9 | CC[C@H](C)[C@H](NC(=O)[C@H](CCCNC(=N)N)NC(=O)[C@H](CCCCN)NC(=O)[C@H](Cc1ccccc1)NC(=O)[C@H](Cc1ccccc1)NC(=O)CN)C(=O)N[C@@H](CCCNC(=N)N)C(=O)N[C@H](C(=O)N[C@@H](Cc1ccccc1)C(=O)N[C@@H](Cc1ccccc1)C(N)=O)[C@@H](C)O (H-GFFKRIRTFF-NH2) | 0.5625 | 0.5625 | 64 (≈ 84.3 µg/mL) | 22.6 | 26.9 (≈ 35.5 µg/mL) | 64 (≈ 84.3 µg/mL) | 26.9 (≈ 35.5 µg/mL) | 16 (≈ 21.1 µg/mL) | >= 512 uM | 16 | 32 (≈ 42.2 µg/mL) | 32 (≈ 42.2 µg/mL) | 32 (≈ 42.2 µg/mL) | 32 (≈ 42.2 µg/mL) | 19 | 19 | 88.9 | 64 (≈ 84.3 µg/mL) | 16 (≈ 21.1 µg/mL) | 
10 | CC[C@H](C)[C@H](NC(=O)[C@H](CCCNC(=N)N)NC(=O)[C@H](CCCCN)NC(=O)[C@H](Cc1ccccc1)NC(=O)[C@H](Cc1c[nH]c2ccccc12)NC(=O)[C@@H](N)CCCCN)C(=O)N[C@@H](CCCCN)C(=O)N[C@H](C(=O)N[C@@H](Cc1ccccc1)C(=O)N[C@@H](Cc1c[nH]c2ccccc12)C(N)=O)[C@@H](C)O (H-KWFKRIKTFW-NH2) | 0.3125 | 0.25 | 128 (≈ 184 µg/mL) | 19 | 32 (≈ 46 µg/mL) | 128 (≈ 184 µg/mL) | 32 (≈ 46 µg/mL) | 16 (≈ 23 µg/mL) | >= 512 uM | 13.4 | 38.1 (≈ 54.8 µg/mL) | 16 (≈ 23 µg/mL) | 16 (≈ 23 µg/mL) | 32 (≈ 46 µg/mL) | 16 | 16 | 80.2 | 64 (≈ 92.1 µg/mL) | 16 (≈ 23 µg/mL) | 
